From patent US9080214B2, “Genetic markers for efficacy of iloperidone in the treatment of psychotic symptoms” (Vanda Pharmaceuticals, Inc., priority 2007, dated 2015)

Test system: individuals diagnosed with schizophrenia
Experiment: Change in PANSS-P subscale by SNP genotype, patients on iloperidone 24 mg/day b.i.d. for 28 days (MMRM)
Type: in vivo, human
From the text: Earlier studies investigated an association between a polymorphism in the CNTF gene and iloperidone efficacy as well as associations between CYP2D6 and KCNQ1 genotypes and changes in QT interval following the administration of iloperidone. The present study involved the genotyping of DNA samples collected from 426 individuals diagnosed with schizophrenia in an attempt to identify additional SNPs associated with iloperidone efficacy. Each sample was genotyped at more than 500,000 SNP loci using the GeneChip® Human Mapping 500K Array Set (Affymetrix, Santa Clara, Calif.) and using assays developed in-house. Approximately half of the participants in the study were administered 24 mg/day of iloperidone, b.i.d., for 28 days. About 25% of the patients were administered ziprasidone. The remaining participants were administered a placebo. Three analyses of the PANSS-T were conducted. 1) A two-step approach where samples were randomly split into 2 groups of iloperidone-treated patients used to discover SNPs associated with changed in PANSS-T (Discovery phase) and a second group to confirm the 100 most significant SNPs (Confirmatory phase). 2) A one-step approach using the Last Observation Carried Forward (LOCF) PANSS-T data of all iloperidone-treated patients. For each SNP, the most parsimonious genetic model (e.g., homozygous for one allele v. all other genotypes [i.e., AA v. AB and BB], heterozygous v. homozygous [i.e., AB v. AA and BB]) was established with respect to iloperidone efficacy using a one-way analysis of variance (ANOVA). 3) A Mixed-effects Model Repeated Measures (MMRM) analysis was subsequently conducted using the best genetic model of each SNP in the MMRM model. MMRM analyses were also conducted with the PANSS subscales PANSS-P, PANSS-N, and PANSS-GP. The SNPs with a statistically significant association in all 3 analyses of PANSS-T, as well as the best of each analysis were considered significant findings and are listed below in Table 1. Results for each of these SNPs with the PANSS-T scales and with the three subscales PANSS-P, PANSS-N, and PANSS-GP are shown in Tables 2, 3, 4, and 5, respectively. […] In the present case of iloperidone efficacy, it is likely that different markers are more specifically associated with one or a few specific clinical symptoms, which is reflected in the improvement measured in separate subscales.

## COc1cc(C(C)=O)ccc1OCCCN1CCC(c2noc3cc(F)ccc23)CC1 [iloperidone, 1-[4-[3-[4-(6-fluoro-1,2-benzisoxazol-3-yl)-1-piperidinyl]propoxy]-3-methoxyphenyl]ethanone]
SNP_A-1819750 (CREG1) genotype A_A
  mean of change in PANSS-P: −5.31
SNP_A-1819750 (CREG1) genotype A_B*
  mean of change in PANSS-P: −4.28
SNP_A-1819750 (CREG1) genotype B_B
  mean of change in PANSS-P: −5.02
SNP_A-1819750 (CREG1) genotype nonAB**
  mean of change in PANSS-P: −5.11
SNP_A-1860353 (RAP1B) genotype A_A**
  mean of change in PANSS-P: −9.20
SNP_A-1860353 (RAP1B) genotype A_B
  mean of change in PANSS-P: −4.42
SNP_A-1860353 (RAP1B) genotype B_B
  mean of change in PANSS-P: −4.28
SNP_A-1860353 (RAP1B) genotype nonAA*
  mean of change in PANSS-P: −4.30
SNP_A-1934663 genotype A_A
  mean of change in PANSS-P: −5.65
SNP_A-1934663 genotype A_B
  mean of change in PANSS-P: −5.78
SNP_A-1934663 genotype B_B*
  mean of change in PANSS-P: −3.40
SNP_A-1934663 genotype nonBB**
  mean of change in PANSS-P: −5.75
SNP_A-1973093 (KIAA0040) genotype A_A
  mean of change in PANSS-P: −5.12
SNP_A-1973093 (KIAA0040) genotype A_B*
  mean of change in PANSS-P: −2.58
SNP_A-1973093 (KIAA0040) genotype B_B
  mean of change in PANSS-P: −5.64
SNP_A-1973093 (KIAA0040) genotype nonAB**
  mean of change in PANSS-P: −5.54
SNP_A-1975928 (SLC2A9) genotype A_A
  mean of change in PANSS-P: −4.60
SNP_A-1975928 (SLC2A9) genotype A_B
  mean of change in PANSS-P: −4.79
SNP_A-1975928 (SLC2A9) genotype B_B*
  mean of change in PANSS-P: 6.19
SNP_A-1975928 (SLC2A9) genotype nonBB**
  mean of change in PANSS-P: −4.65
SNP_A-1987915 (GPR126) genotype A_A
  mean of change in PANSS-P: −3.53
SNP_A-1987915 (GPR126) genotype A_B
  mean of change in PANSS-P: −3.43
SNP_A-1987915 (GPR126) genotype B_B**
  mean of change in PANSS-P: −5.95
SNP_A-1987915 (GPR126) genotype nonBB*
  mean of change in PANSS-P: −3.45
SNP_A-2007721 (LOC58486) genotype A_A
  mean of change in PANSS-P: −1.70
SNP_A-2007721 (LOC58486) genotype A_B**
  mean of change in PANSS-P: −7.48
SNP_A-2007721 (LOC58486) genotype B_B
  mean of change in PANSS-P: −3.42
SNP_A-2007721 (LOC58486) genotype nonAB*
  mean of change in PANSS-P: −3.41
SNP_A-2044214 (HNT) genotype A_A
  mean of change in PANSS-P: −5.77
SNP_A-2044214 (HNT) genotype A_B*
  mean of change in PANSS-P: −2.08
SNP_A-2044214 (HNT) genotype B_B
  mean of change in PANSS-P: −5.64
SNP_A-2044214 (HNT) genotype nonAB**
  mean of change in PANSS-P: −5.73
SNP_A-2048427 (NPAS3) genotype A_A
  mean of change in PANSS-P: −6.16
SNP_A-2048427 (NPAS3) genotype A_B
  mean of change in PANSS-P: −6.26
SNP_A-2048427 (NPAS3) genotype B_B*
  mean of change in PANSS-P: −3.61
SNP_A-2048427 (NPAS3) genotype nonBB**
  mean of change in PANSS-P: −6.24
SNP_A-2070454 (NKX2-5) genotype A_A
  mean of change in PANSS-P: −4.04
SNP_A-2070454 (NKX2-5) genotype A_B
  mean of change in PANSS-P: −3.89
SNP_A-2070454 (NKX2-5) genotype B_B**
  mean of change in PANSS-P: −5.75
SNP_A-2070454 (NKX2-5) genotype nonBB*
  mean of change in PANSS-P: −3.94
SNP_A-2076797 (NUDT9P1) genotype A_A
  mean of change in PANSS-P: −2.57
SNP_A-2076797 (NUDT9P1) genotype A_B**
  mean of change in PANSS-P: −6.55
SNP_A-2076797 (NUDT9P1) genotype B_B
  mean of change in PANSS-P: −2.27
SNP_A-2076797 (NUDT9P1) genotype nonAB*
  mean of change in PANSS-P: −2.42
SNP_A-2103099 (HTR1A) genotype A_A
  mean of change in PANSS-P: −6.05
SNP_A-2103099 (HTR1A) genotype A_B*
  mean of change in PANSS-P: −2.88
SNP_A-2103099 (HTR1A) genotype B_B
  mean of change in PANSS-P: −5.88
SNP_A-2103099 (HTR1A) genotype nonAB**
  mean of change in PANSS-P: −5.95
SNP_A-2120958 genotype A_A
  mean of change in PANSS-P: −4.97
SNP_A-2120958 genotype A_B
  mean of change in PANSS-P: −4.92
SNP_A-2120958 genotype B_B*
  mean of change in PANSS-P: 1.49
SNP_A-2120958 genotype nonBB**
  mean of change in PANSS-P: −4.95
SNP_A-2170121 (C6) genotype A_A
  mean of change in PANSS-P: −3.49
SNP_A-2170121 (C6) genotype A_B**
  mean of change in PANSS-P: −6.98
SNP_A-2170121 (C6) genotype B_B
  mean of change in PANSS-P: −4.26
SNP_A-2170121 (C6) genotype nonAB*
  mean of change in PANSS-P: −3.56
SNP_A-2274533 (LZTS1) genotype A_A**
  mean of change in PANSS-P: −5.34
SNP_A-2274533 (LZTS1) genotype A_B
  mean of change in PANSS-P: −2.64
SNP_A-2274533 (LZTS1) genotype B_B
  mean of change in PANSS-P: −2.63
SNP_A-2274533 (LZTS1) genotype nonAA*
  mean of change in PANSS-P: −2.63
SNP_A-2283283 (XKR4) genotype A_A*
  mean of change in PANSS-P: −1.85
SNP_A-2283283 (XKR4) genotype A_B
  mean of change in PANSS-P: −4.92
SNP_A-2283283 (XKR4) genotype B_B
  mean of change in PANSS-P: −5.41
SNP_A-2283283 (XKR4) genotype nonAA**
  mean of change in PANSS-P: −5.12
SNP_A-2284243 (GRIA4) genotype A_A
  mean of change in PANSS-P: −5.09
SNP_A-2284243 (GRIA4) genotype A_B
  mean of change in PANSS-P: −5.09
SNP_A-2284243 (GRIA4) genotype B_B*
  mean of change in PANSS-P: −2.11
SNP_A-2284243 (GRIA4) genotype nonBB**
  mean of change in PANSS-P: −5.09
SNP_A-4204396 (CDH13) genotype A_A
  mean of change in PANSS-P: −4.76
SNP_A-4204396 (CDH13) genotype A_B
  mean of change in PANSS-P: −4.99
SNP_A-4204396 (CDH13) genotype B_B*
  mean of change in PANSS-P: 1.63
SNP_A-4204396 (CDH13) genotype nonBB**
  mean of change in PANSS-P: −4.85
SNP_A-4212785 (PPP1R3B) genotype A_A*
  mean of change in PANSS-P: 4.95
SNP_A-4212785 (PPP1R3B) genotype A_B
  mean of change in PANSS-P: −4.78
SNP_A-4212785 (PPP1R3B) genotype B_B
  mean of change in PANSS-P: −4.70
SNP_A-4212785 (PPP1R3B) genotype nonAA**
  mean of change in PANSS-P: −4.73
SNP_A-4230979 (ASB3) genotype A_A
  mean of change in PANSS-P: −2.80
SNP_A-4230979 (ASB3) genotype A_B
  mean of change in PANSS-P: −3.63
SNP_A-4230979 (ASB3) genotype B_B**
  mean of change in PANSS-P: −5.84
SNP_A-4230979 (ASB3) genotype nonBB*
  mean of change in PANSS-P: −3.45
SNP_A-4256833 (MLCK) genotype A_A
  mean of change in PANSS-P: −4.59
SNP_A-4256833 (MLCK) genotype A_B*
  mean of change in PANSS-P: −2.78
SNP_A-4256833 (MLCK) genotype B_B
  mean of change in PANSS-P: −5.14
SNP_A-4256833 (MLCK) genotype nonAB**
  mean of change in PANSS-P: −5.10
SNP_A-4258279 (RRM1) genotype A_A
  mean of change in PANSS-P: −5.01
SNP_A-4258279 (RRM1) genotype A_B*
  mean of change in PANSS-P: −0.85
SNP_A-4258279 (RRM1) genotype B_B
  mean of change in PANSS-P: −5.25
SNP_A-4258279 (RRM1) genotype nonAB**
  mean of change in PANSS-P: −5.24
